In patent US20240173289A1, “USE OF OXYMETHYL-MODIFIED DERIVATIVE OF QUERCETIN IN PREPARATION OF DRUG FOR INHIBITING TUMOR CELL PROLIFERATION” (ZHEJIANG UNIVERSITY, priority 2021, published 2024):
Converted amounts (≈) assume the structure as drawn.

What was measured:
Type in all cases: cell-based
mouse glioma BV2 = assay: apoptosis, AnnexinV-FITC/PI flow cytometry; details: BV-2; 4 mg/L; 24 h
Excerpt: (§1) The tumor cells growing in the logarithmic phase were digested with trypsin, collected by centrifugation to prepare a suspension, the cells were counted and adjusted to a certain concentration (6×10^5 cells per mL for AGS, T47D, Caco2, BCPAP, GES, HUVEC; 5×10^5 cells per mL for HepG2, MDA-MB-231, BGC-823, A549, PC3, L02; 3×10^5 cells per mL for 143B, HOS, U2, SGC-7901, Hela, BV-2; 1.8×10^6 cells per mL for WI-38), and the cells at a certain concentration were transferred to a 6-well plate at a concentration of 1 mL per well. The cells were cultured in a cell culture incubator for 12 h to allow the cells to adhere to the wall. The corresponding dosages of a quercetin 3,3′-dimethyl ether solution were added (the dosage of osteosarcoma cells was 143B: 4 mg/L, HOS: 4 mg/L, U2: 10 mg/L; the dosage of breast cancer cells was MDA-MB-231: 2 mg/L, T47D: 3 mg/L; the dosage of gastric cancer cells was SGC7901: 6 mg/L, BGC823: 5 mg/L, AGS: 3 mg/L; the dosage of cervical cancer Hela cells was 2 mg/L; the dosage of lung cancer cell A549 was 3 mg/L; the dosage of intestinal cancer cells Caco2 was 4 mg/L; the dosage of mouse glioma BV2 was 4 mg/L; the dosage of human prostate cancer cells PC3 was 6 mg/L; and the dosage of human thyroid cancer cells BCPAP was 2 mg/L). While DMSO was used as a solvent control, and then incubated for 24 h. After acting for 24 h, the cells were collected by centrifugation at 300 g, 4° C. for 5 min, a supernatant was discarded, and the cells were washed twice with pre-cooled PBS, each time with centrifugation at 300 g, 4° C. for 5 min. (1˜5)×10^5 cells were collected and resuspended in […] 1× BindingBuffer. 5 μl of AnnexinV-FITC and 5 μl of PI were added, and mixed well gently. The cells were reacted at room temperature for 10 min in the dark. 400 μl of 1× Binding Buffer was added, mixed well, and the samples were detected by flow cytometry within 1 h. The analysis was conducted according to a standard detection procedure of flow cytometry, at an excitation wavelength of 488 nm, and 20,000 cells were counted, and obtained results were analyzed with cell cycle fitting software ModFit.

[1] = tested on: human prostate cancer cells PC3; assay: apoptosis, AnnexinV-FITC/PI flow cytometry; details: 6 mg/L, 24 h
Excerpt: as §1

gastric cancer cells AGS = assay: apoptosis, AnnexinV-FITC/PI flow cytometry; details: 3 mg/L, 24 h
Excerpt: as §1

[2] = tested on: gastric cancer cells BGC-823; assay: apoptosis, AnnexinV-FITC/PI flow cytometry; details: 5 mg/L, 24 h
Excerpt: as §1

[3] = tested on: intestinal cancer cells Caco2; assay: apoptosis, AnnexinV-FITC/PI flow cytometry; details: 4 mg/L, 24 h
Excerpt: as §1

[4] = tested on: gastric cancer cell line SGC-7901; assay: in vitro cell proliferation inhibition (CCK-8); details: Homo sapiens, SGC-7901, SGC7901, 48 h incubation, read-out: IC50
Excerpt: (§2) Osteosarcoma cell line 143B, HOS, and U2, liver cancer cell line HepG2, breast cancer cell line MDA-MB-231 and T47D, gastric cancer cell line AGS, BGC-823, and SGC-7901, cervical cancer cells Hela, lung cancer cells A549, intestinal cancer cells Caco2, mouse glioma cells BV-2, human prostate cancer cells PC3, human thyroid cancer cell line BCPAP, human normal liver cell line L02, human normal gastric cell line GES, human umbilical vein epithelial cells HUVEC, and human embryonic lung fibroblasts WI-38 were cultured in a DMEM medium containing 10% fetal bovine serum and 1×HEPES in a humid incubator (37° C., 5% CO2). The cells were passaged with trypsin-EDTA in logarithmic phase. Certain density of cells (AGS, T47D, Caco2, BCPAP, GES, HUVEC 1×10^5 cells per well; HepG2, MDA-MB-231, BGC-823, A549, PC3, L02 8×10^4 cells per well; 143B, HOS, U2, SGC-7901, Hela, BV-2, 5×10^4 cells per well; WI-38, 3×10^5 cells per well) were inoculated in a 96-well plate, and cultured for 24 h before treatment. After replacing a fresh medium, 12.5 mg/L to 400 mg/L of quercetin, quercetin 3-methyl ether, and quercetin 3,3′-dimethyl ether dissolved with DMSO were added into the medium (a final volume ratio was 0.1%, and the DMSO was used as a […]). After incubation for 48 h, a complete medium was replaced with a serum-free medium containing 10% CCK-8 reagent. The absorbance at 450 nm and 620 nm was measured separately after the cells were incubated for 1 h. Each experiment was repeated three times independently.
as §2, with “400 mg/L,” for “400 mg/L”, “of” for “of quercetin, quercetin 3-methyl ether, and”, “DMSO was” for “DMSO were”, “into a” for “into the”

[5] = tested on: Osteosarcoma cell line U2; assay: in vitro cell proliferation inhibition (CCK-8); details: 48 h incubation, read-out: IC50
Excerpt: as §2
as §2, with “400 mg/L,” for “400 mg/L”, “of” for “of quercetin, quercetin 3-methyl ether, and”, “DMSO was” for “DMSO were”, “into a” for “into the”

[6] = tested on: gastric cancer cell line BGC-823; assay: in vitro cell proliferation inhibition (CCK-8); details: Homo sapiens, BGC-823, BGC823, 48 h incubation, read-out: IC50
Excerpt: as §2
as §2, with “400 mg/L,” for “400 mg/L”, “of” for “of quercetin, quercetin 3-methyl ether, and”, “DMSO was” for “DMSO were”, “into a” for “into the”

mouse glioma cells BV-2 = assay: in vitro cell proliferation inhibition (CCK-8); details: Mus musculus, Glioma cell, BV2, 48 h incubation, read-out: IC50
Excerpt: as §2
as §2, with “400 mg/L,” for “400 mg/L”, “of” for “of quercetin, quercetin 3-methyl ether, and”, “DMSO was” for “DMSO were”, “into a” for “into the”

[7] = tested on: liver cancer cell line HepG2; assay: in vitro cell proliferation inhibition (CCK-8); details: Homo sapiens, 48 h incubation, read-out: IC50
Excerpt: as §2
as §2, with “400 mg/L,” for “400 mg/L”, “of” for “of quercetin, quercetin 3-methyl ether, and”, “DMSO was” for “DMSO were”, “into a” for “into the”

- IC50 [4]: 28.4 µg/mL (≈ 85.9 µM)
- IC50 [5]: 49.5 µg/mL (≈ 150 µM)
- IC50 [6]: 26.1 µg/mL (≈ 78.9 µM)
- IC50 (mouse glioma cells BV-2): 21.1 µg/mL (≈ 63.9 µM)
- IC50 [7]: 5.85 µg/mL (≈ 17.7 µM)
SMILES: COc1cc(-c2oc3cc(O)cc(O)c3c(=O)c2OC)ccc1O [Quercetin 3,3′-dimethyl ether, quercetin 3,3′-dimethyl ether]
- Treatment apoptosis ratio % (mouse glioma BV2): 18.65 ± 0.39 %
- Treatment apoptosis ratio % [1]: 21.13 ± 5.11 %
- Treatment apoptosis ratio % (gastric cancer cells AGS): 29.47 ± 2.25 %
- Treatment apoptosis ratio % [2]: 26.68 ± 3.45 %
- Treatment apoptosis ratio % [3]: 22.81 ± 3.72 *^ %
